Measurements: patent US20230310445A1, “LOX ENZYME INHIBITING METHODS AND COMPOSITIONS” (ANOVIA BIOSCIENCES, INC., priority 2020, published 2023)

Columns and labels:
[1] = target: T1, Recombinant human LOXL2 (lysyl oxidase like 2) (Homo sapiens, UniProt Q9Y4K0); test: LOXL2 inhibition assay (fluorometric, cadaverine/Amplex Red/HRP); assay type: biochemical; details: IC50 class; recombinant human LOXL2, cadaverine substrate; read-out: Activity Range LOXL2
T1 construct: purchased R&D systems
T1 sequence (Q9Y4K0 26-774): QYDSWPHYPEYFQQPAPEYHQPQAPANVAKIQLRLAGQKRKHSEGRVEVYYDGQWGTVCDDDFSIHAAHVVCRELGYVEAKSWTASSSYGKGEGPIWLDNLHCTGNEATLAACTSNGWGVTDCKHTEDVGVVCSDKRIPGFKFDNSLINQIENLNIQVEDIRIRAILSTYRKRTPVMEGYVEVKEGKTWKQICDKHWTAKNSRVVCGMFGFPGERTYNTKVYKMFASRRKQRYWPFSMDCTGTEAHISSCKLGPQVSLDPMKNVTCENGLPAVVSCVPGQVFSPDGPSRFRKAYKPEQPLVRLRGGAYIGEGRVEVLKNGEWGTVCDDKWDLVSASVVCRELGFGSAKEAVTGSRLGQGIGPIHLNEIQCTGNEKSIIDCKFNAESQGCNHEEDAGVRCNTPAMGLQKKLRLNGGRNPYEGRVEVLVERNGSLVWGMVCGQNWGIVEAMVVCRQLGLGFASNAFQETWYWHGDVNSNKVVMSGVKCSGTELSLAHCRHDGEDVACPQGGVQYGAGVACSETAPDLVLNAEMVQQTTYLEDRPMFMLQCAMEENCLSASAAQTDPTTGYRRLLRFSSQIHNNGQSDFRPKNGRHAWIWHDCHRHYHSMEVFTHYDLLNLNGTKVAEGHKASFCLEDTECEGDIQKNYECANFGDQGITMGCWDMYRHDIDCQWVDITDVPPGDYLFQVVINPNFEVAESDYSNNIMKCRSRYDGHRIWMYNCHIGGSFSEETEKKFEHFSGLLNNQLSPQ
Method: (§1) The ability of compounds to inhibit one or more of the lysyl oxidases LOXL2 and/or LOXL3 was determined using a fluorometric assay. This assay measures the activity of lysyl oxidases by coupling the reaction with horseradish peroxidase-catalyzed […]. The activity assay protocol uses cadaverine as substrate that releases hydrogen peroxide upon transformation by the specific LOX family enzyme present in the sample. Hydrogen peroxide is in turn detected using a red fluorescence substrate for HRP-coupled reactions (Amplex Red Enzyme Assays, Thermo Scientific Fisher). This leads to increase in fluorescence that can be easily detected at Ex/Em=540/590 nm in a fluorescence microplate reader.
Enzymes: Recombinant human LOXL2 (lysyl oxidase like 2) and recombinant human LOXL3 (lysyl oxidase like 3) were purchased from R&D systems and assays were performed in 1.2 M urea, 50 mM sodium borate buffer pH 8.0, and 10 mM CaCl.
Reaction: Final concentration in the LOXL2 and LOXL3 assays were as following and performed in a total volume of […]:
Experimental procedure: 5 μl of freshly prepared reaction buffer were delivered to reaction wells. Compounds were resuspended in 100% DMSO at 10 mM and delivered into buffer using acoustic technology (Echo550; nanoliter range). A 3× solution of LOXL2 or LOXL3 in reaction buffer was prepared (“enzyme solution”) and 5 μL of enzyme solution was added into the reaction wells. Buffer only was added to column 1 for no protein control. Reactions were incubated for 30 minutes at 37° C. A 3×mixture of cadaverine, Amplex Red, and HRP (“Substrate/Detection Mix) was prepared and subsequently 5 μL of the mixture added to each reaction well. Progress of reactions was monitored for 60 minutes at 37° C. using Clariostar plate reader (ex 530-12, ems 600-40). For all activity assays, pan-LOX inhibitor CCT365623 (Tang et al, 2017) and LOXL2/LOXL3 inhibitor PAT-1251 (PharmaKea) were included as standards.
Data analysis: Slope of the linear portion of the progress curve was calculated using Clariostar software. Typical analysis interval was between 8-30 min, but varied between experiments. The background subtracted signals (No protein wells are considered as background) were converted to % activity relative to DMSO controls. Data was analyzed using GraphPad Prism 4 with “sigmoidal dose-response (variable slope)”; 4 parameters with Hill Slope. Constraints: Bottom=Constant equal to 0. Top=Must be less than 120.

[2] = target: T2, Bovine lysyl oxidase (LOX) (Bos taurus, UniProt P33072); test: LOX inhibition assay (fluorometric, cadaverine/Amplex Red/HRP); assay type: biochemical; details: IC50 class; bovine tendon LOX, cadaverine substrate; read-out: Activity Range LOX
T2 construct: from tissue; host or cells: adult bovine tendon
T2 sequence (P33072 170-418): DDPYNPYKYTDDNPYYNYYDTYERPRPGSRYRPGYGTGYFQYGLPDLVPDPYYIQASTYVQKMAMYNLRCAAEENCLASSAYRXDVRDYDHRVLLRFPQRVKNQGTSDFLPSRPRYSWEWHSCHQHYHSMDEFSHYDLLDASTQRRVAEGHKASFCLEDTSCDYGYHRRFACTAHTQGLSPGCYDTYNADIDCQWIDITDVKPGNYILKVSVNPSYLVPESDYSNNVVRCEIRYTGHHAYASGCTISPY
Method: as §1, with “prototypic LOX” for “one or more of the lysyl oxidases LOXL2 and/or LOXL3”, “prototypic” for “the specific”, “LOX” for “LOX family”
Enzyme: Bovine lysyl oxidase (LOX) was extracted by adapting the methodology from [Kagan et al. 1979 and Borel et al. 2001.] from bovine tendon: Frozen adult bovine tendon was placed in room temperature water to defrost, and then membranes were removed and the remaining tissue cut into 1 cm pieces. The material was first passed through a course mesh meat grinder, and this mince was passed through a fine mesh grinder. The mince was homogenized in 10 v/w of buffer (16 mM sodium phosphate buffer pH 7.8, 400 mM NaCl) using a Waring blender. The homogenate was centrifuged at 15,000×g for 15 min at 4° C. After centrifugation, the supernatant was discarded and the pellets resuspended in 10 volumes of the same buffer. The mixture was blended again and centrifuged with the same settings. This time the pellets were blended in 3 volumes of extraction buffer (16 mM sodium phosphate buffer pH 7.8) and left to incubate at 4° C. for 2 h. After this time, the slurry was centrifuged with the same settings as described above. The supernatant was used in an ultrafiltration step to remove large proteins by size exclusion through a 30 kDalton filter (EMD Millipore). The filtrate was mixed with DEAE Sephadex (GE Healthcare), or passed over a MonoQ FPLC column. After two washes, one in 16 mM sodium phosphate buffer pH 7.8, 380 mM NaCl, and another in 16 mM sodium phosphate buffer pH 7.8, the proteins were eluted with 16 mM sodium phosphate pH 7.8, 10 μM CuSO4, and 4 M urea. Fractions containing Lox activity were collected and stored frozen at −70° C.
Reaction: Final concentration in the LOX assay was as following and performed in a total volume of […]:
Experimental procedure: 7 μl of freshly prepared reaction buffer were delivered to reaction wells. Compounds were resuspended in 100% DMSO at 10 mM and delivered into buffer using acoustic technology (Echo550; nanoliter range). A 2.85× solution of LOX protein in reaction buffer was prepared (“LOX solution”) and 7 μl of LOX solution was added into the reaction wells. Buffer only was added to column 1 for no protein control. Reactions were incubated for 30 minutes at 37° C. A 3.33× mixture of cadaverine, Amplex Red, and HRP (“Substrate/Detection Mix) was prepared and subsequently 6 μL of the mixture was added to each reaction well. Progress of reactions was monitored for 120 minutes at 37° C. using Clariostar plate reader (ex530-12, ems 600-40). For all activity assays, pan-LOX inhibitor CCT365623 (Tang et al, 2017) and LOXL2/LOXL3 inhibitor PAT-1251 (PharmaKea) were included as standards.
Data analysis: Slope of the linear portion of the progress curve was calculated using Clariostar software. Typical analysis interval was between 20-50 min, but varied between experiments. The background subtracted signals (No protein wells were considered as background) were converted to % activity relative to DMSO controls. Data was analyzed using GraphPad Prism 4 with “sigmoidal dose-response (variable slope)”; 4 parameters with Hill Slope. Constraints: Bottom=Constant equal to 0. Top=Must be less than 120.

`NCc1ccc(S(=O)(=O)N2C[C@@H](C(=O)N3CCS(=O)(=O)CC3)C[C@@H](c3ccccc3)C2)s1` (racemic) [Example 75, cis-(1-((5-(Aminomethyl)thiophen-2-yl)sulfonyl)-5-phenylpiperidin-3-yl)(1,1-dioxidothiomorpholino)methanone 2,2,2-trifluoroacetate] showed an IC50 [1] of no more than 500 nM and an IC50 [2] of no more than 500 nM.

`CN(C)C(=O)N1C[C@@H](c2ccccc2)C[C@H](S(=O)(=O)c2cccc(CN)c2)C1` (racemic) [Example 94, trans-3-((3-(Aminomethyl)phenyl)sulfonyl)-N,N-dimethyl-5-phenylpiperidine-1-carboxamide 2,2,2-trifluoroacetate] showed an IC50 [1] of 500 to 1000 nM and an IC50 [2] greater than 30000 nM.

`CS(=O)(=O)N1C[C@@H](Oc2cc(CN)ccc2F)C[C@H](c2ccccc2)C1` (racemic) [Example 90, trans-(4-Fluoro-3-((-1-(methylsulfonyl)-5-phenylpiperidin-3-yl)oxy)phenyl)Methanamine 2,2,2-trifluoroacetate] showed an IC50 [1] of 500 to 1000 nM and an IC50 [2] greater than 30000 nM.

`CS(=O)(=O)N1CCN(C(=O)[C@H]2C[C@@H](c3ccccc3)CN(S(=O)(=O)c3cccc(CN)c3)C2)CC1` (racemic) [Example 78, cis-(1-((3-(Aminomethyl)phenyl)sulfonyl)-5-phenylpiperidin-3-yl)(4-(methylsulfonyl)piperazin-1-yl)methanone 2,2,2-trifluoroacetate] gave an IC50 [1] of 500 to 1000 nM and an IC50 [2] greater than 30000 nM.

Work on `NCc1cccc(S(=O)(=O)N2C[C@@H](C(=O)N3CCOCC3)C[C@@H](C(F)(F)F)C2)c1` (relative stereo) [Example 98, cis-(1-((3-(Aminomethyl)phenyl)sulfonyl)-5-(trifluoromethyl)piperidin-3-yl)(morpholino)methanone 2,2,2-trifluoroacetate] yielded an IC50 [1] of 1000 to 30000 nM and an IC50 [2] greater than 30000 nM.

Work on `CS(=O)(=O)N1C[C@H](Oc2cccc(CN)c2)C[C@H](c2ccccc2)C1` (racemic) [Example 25, cis-(3-((-1-(Methylsulfonyl)-5-phenylpiperidin-3-yl)oxy)phenyl)methanamine 2,2,2-trifluoroacetate] yielded an IC50 [1] of 500 to 1000 nM and an IC50 [2] of 1000 to 30000 nM.

In the case of `CC(N)c1cccc(S(=O)(=O)N2C[C@H](C(=O)N3CCOCC3)C[C@@H](c3ccccc3)C2)c1` (mixture of isomers) [Example 102TR, trans-(1-((3-(1-Aminoethyl)phenyl)sulfonyl)-5-phenylpiperidin-3-yl)(morpholino)methanone 2,2,2-trifluoroacetate], the IC50 [1] is reported as greater than 30000 nM and the IC50 [2] is reported as greater than 30000 nM.

`NCc1cnc(S(=O)(=O)N2C[C@@H](C(=O)N3CCOCC3)C[C@@H](c3ccccc3)C2)s1` (racemic) [Example 111, cis-(1-((5-(Aminomethyl)thiazol-2-yl)sulfonyl)-5-phenylpiperidin-3-yl)(morpholino)methanone 2,2,2-trifluoroacetate] gave an IC50 [1] of 500 to 1000 nM and an IC50 [2] greater than 30000 nM.

Work on `CS(=O)(=O)N1C[C@H](Oc2ccc(CN)cc2)C[C@H](c2ccccc2)C1` (racemic) [Example 24, cis-(4-((1-(Methylsulfonyl)-5-phenylpiperidin-3-yl)oxy)phenyl)methanamine 2,2,2-trifluoroacetate] yielded an IC50 [1] of 1000 to 30000 nM and an IC50 [2] greater than 30000 nM.

With `CS(=O)(=O)N1C[C@@H](c2ccccc2)C[C@@H](S(=O)(=O)c2cccc(CN)c2)C1` (racemic) [Example 27, cis-(3-((1-(Methylsulfonyl)-5-phenylpiperidin-3-yl)sulfonyl)phenyl)methanamine 2,2,2-trifluoroacetate] the IC50 [1] was no more than 500 nM and the IC50 [2] was 1000 to 30000 nM.

Work on `CC(N)c1cccc(S(=O)(=O)N2C[C@H](C(=O)N3CCS(=O)(=O)CC3)C[C@@H](c3ccccc3)C2)c1` (mixture of isomers) [Example 106, trans-(1-((3-(1-Aminoethyl)phenyl)sulfonyl)-5-phenylpiperidin-3-yl) (1,1-dioxidothiomorpholino)methanone 2,2,2-trifluoroacetate] yielded an IC50 [1] greater than 30000 nM and an IC50 [2] greater than 30000 nM.

For `NCc1cccc(S(=O)(=O)N2C[C@@H](C(=O)N3CCOCC3)C[C@@H](c3ccccc3)C2)n1` (racemic) [Example 114, cis-(1-((6-(Aminomethyl)pyrid-2-yl)sulfonyl)-5-phenylpiperidin-3-yl)(morpholino)methanone], the IC50 [1] was greater than 30000 nM.

For `NCc1cnc(S(=O)(=O)N2C[C@@H](C(=O)N3CCS(=O)(=O)CC3)C[C@@H](c3ccccc3)C2)s1` (racemic) [Example 112, cis-(1-((5-(Aminomethyl)thiazol-2-yl)sulfonyl)-5-phenylpiperidin-3-yl)(1,1-dioxidothiomorpholino)methanone 2,2,2-trifluoroacetate], the IC50 [1] was no more than 500 nM and the IC50 [2] was 1000 to 30000 nM.
